Where “and” joins values, the source holds several entries; their conditions need not be identical. Equal entries are not always repeated.
How the values were obtained:
[1] = test system: acetic acid-induced writhing (visceral pain) in mice; experiment: Acetic acid writhing (AAW) analgesic assay; type: in vivo
Description: An analgesic assay was used to determine whether a given compound can reduce and/or prevent visceral pain in mice. The assay utilizes Swiss Albino or CD-1 male mice (5-10 mice per group), each mouse being approximately 0.015-0.030 kg on the study day. Mice were treated according to standard protocols.
The animal was given an intraperitoneal (IP) injection of an irritant (acetic acid) that induces “writhing” which may include: contractions of the abdomen, twisting and turning of the trunk, arching of the back and the extension of the hindlimbs. Mice are given a single IP injection (0.1 mL/10 g bodyweight) of a 0.5% acetic acid solution. After the injection the animals were returned to their observation enclosure and their behavior was observed. Contractions were counted between 0 and 20 minutes after the injection. The animals were used once. In certain instances, the test articles were administered at multiple doses to determine a dose response curve.
Table 4 provides the results for certain compounds of the present invention that were administered subcutaneously. Table 5 provides the results for certain compounds of the present invention that were administered orally.

[2] = test system: locomotor activity of mice; experiment: Locomotor activity; type: in vivo; conditions: oral, 30 min predose, 20 min observation
Description: Male Swiss Albino mice were treated orally with vehicle (0.5% HPMC+0.1% Tween80), ketazocine, Compound 12 (0.3, 3 and 30 mg/kg) or Compound 20 (0.3, 3 and 30 mg/kg) thirty minutes prior to placement in the locomotor activity chamber. Total distance travelled was measured over the twenty minute observation time following placement in the locomotor activity chamber. Data are normalized relative to percent distance travelled in the vehicle group. The efficacy of Compound 12 (reported as percent distance travelled in comparison to vehicle) was 88.85%, 83.74% and 0.08% at 0.3, 3 and 30 mg/kg dosages, respectively, while the locomotor activity of Compound 20 (reported as percent distance travelled in comparison to vehicle) was 100%, 88% and 0.03% at 0.3, 3 and 30 mg/kg dosages, respectively.

Structure (SMILES) | AAW % Efficacy ([1]; subcutaneous, 3 mg/kg) | AAW % Efficacy ([1]; subcutaneous, 30 mg/kg) [%] | AAW % Efficacy ([1]; subcutaneous, 10 mg/kg) [%] | further results
COCCOCCOCCOCCOCCOc1ccccc1Nc1ccc2c(c1)[C@]1(C)CCN(CC3CC3)[C@H](C2=O)[C@@H]1C [Example 7, (2S,6R,11R)-8-((2-(2,5,8,11,14-pentaoxahexadecan-16-yloxy)phenyl)amino)-3-(cyclopropylmethyl)-6,11-dimethyl-3,4,5,6-tetrahydro-2,6-methanobenzo[d]azocin-1(2H)-one] | 38.8% | 84.8 | – | –
COCCOCCOCCOCCOCCOc1cccc(Nc2ccc3c(c2)[C@]2(C)CCN(CC4CC4)[C@H](C3=O)[C@@H]2C)c1 [Example 8, (2S,6R,11R)-8-((3-(2,5,8,11,14-pentaoxahexadecan-16-yloxy)phenyl)amino)-3-(cyclopropylmethyl)-6,11-dimethyl-3,4,5,6-tetrahydro-2,6-methanobenzo[d]azocin-1(2H)-one] | 38.0% | – | – | inhibition in vivo at 30 mg/kg ([1]; Mus musculus, sc, subcutaneous, 30 mg/kg, read-out: AAW % Efficacy): 100%
COCCOCCOCCOCCOCCOc1ccc(Nc2ccc3c(c2)[C@]2(C)CCN(CC4CC4)[C@H](C3=O)[C@@H]2C)cc1 [Example 9, (2S,6R,11R)-8-((4-(2,5,8,11,14-pentaoxahexadecan-16-yloxy)phenyl)amino)-3-(cyclopropylmethyl)-6,11-dimethyl-3,4,5,6-tetrahydro-2,6-methanobenzo[d]azocin-1(2H)-one] | 67.8% and 61.4% | 99.2 | 95.4 | AAW % Efficacy ([1]; oral, 10 mg/kg): 38.5%; AAW % Efficacy ([1]; subcutaneous, 0.3 mg/kg): 13.3%
COCCOCCOCCOCCOCCNc1ccc(Nc2ccc3c(c2)[C@]2(C)CCN(CC4CC4)[C@H](C3=O)[C@@H]2C)cc1 [Example 10, (2S,6R,11R)-8-((4-(2,5,8,11,14-pentaoxahexadecan-16-ylamino)phenyl)amino)-3 (cyclopropylmethyl)-6,11-dimethyl-3,4,5,6-tetrahydro-2,6-methanobenzo[d]azocin-1(2H)-one] | 34.0% | 100.0 | – | –
COCCOCCOCCOCCOCCNc1cccc(Nc2ccc3c(c2)[C@]2(C)CCN(CC4CC4)[C@H](C3=O)[C@@H]2C)c1 [Example 11, (2S,6R,11R)-8-((3-(2,5,8,11,14-pentaoxahexadecan-16-ylamino)phenyl)amino)-3-(cyclopropylmethyl)-6,11-dimethyl-3,4,5,6-tetrahydro-2,6-methanobenzo[d]azocin-1(2H)-One] | 62.2% and 64.3% | 100.0 | 99.1 | AAW % Efficacy ([1]; oral, 10 mg/kg): 31.2%; AAW % Efficacy ([1]; subcutaneous, 0.3 mg/kg): 21.1%
COCCOCCOCCOCCOCCNc1ccc(Nc2ccc3c(c2)[C@]2(C)CCN(CC4CC4)[C@H](C3=O)[C@@H]2C)cc1 [Example 12, (2S,6R,11R)-8-((4-(2,5,8,11,14-pentaoxahexadecan-16-ylamino)phenyl)amino)-3-(cyclopropylmethyl)-6,11-dimethyl-3,4,5,6-tetrahydro-2,6-methanobenzo[d]azocin-1(2H)-one] | – | 100.0 | – | percent distance travelled in comparison to vehicle ([2]; 0.3 mg/kg): 88.85%; percent distance travelled in comparison to vehicle ([2]; 3 mg/kg): 83.74%; percent distance travelled in comparison to vehicle ([2]; 30 mg/kg): 0.08%; AAW % Efficacy ([1]; oral, 0.1 mg/kg): 22.5%; AAW % Efficacy ([1]; oral, 1 mg/kg): 56.9%; AAW % Efficacy ([1]; oral, 10 mg/kg): 97.2% and 90.2%
COCCOCCOCCOCCOCCNc1nc2cc3c(cc2s1)C(=O)[C@@H]1[C@H](C)[C@@]3(C)CCN1CC1CC1 [Example 13, (6S,10R,12R)-2-(2,5,8,11,14-pentaoxahexadecan-16-ylamino)-7-(cyclopropylmethyl)-10,12-dimethyl-7,8,9,10-tetrahydro-6,10-methanothiazolo[4′,5′:4,5]benzo[1,2-d]azocin-5(6H)-one] | – | – | 40.2 | –
COCCOCCN1CC[C@@]2(C)c3cc(O)ccc3C(=O)[C@@H]1[C@@H]2C [Example 14, (2S,6R,11R)-8-hydroxy-3-(2-(2-methoxyethoxy)ethyl)-6,11-dimethyl-3,4,5,6-tetrahydro-2,6-methanobenzo[d]azocin-1(2H)-One] | – | – | 13.2 | –
COCCOCC(=O)Nc1ccc2c(c1)[C@]1(C)CCN(CC3CC3)[C@H](C2=O)[C@@H]1C [Example 15, N-((2S,6R,11R)-3-(cyclopropylmethyl)-6,11-dimethyl-1-oxo-1,2,3,4,5,6-hexahydro-2,6-methanobenzo[d]azocin-8-yl)-2-(2-methoxyethoxy)acetamide] | – | – | 100.0 | –
COCCNC(=O)c1ccc2c(c1)[C@]1(C)CCN(CC3CC3)[C@H](C2=O)[C@@H]1C [Example 16, (2S,6R,11R)-3-(cyclopropylmethyl)-N-(2-methoxyethyl)-6,11-dimethyl-1-oxo-1,2,3,4,5,6-hexahydro-2,6-methanobenzo[d]azocine-8-carboxamide] | – | – | 26.4 | –
COCCOCC(=O)NCc1ccc2c(c1)[C@]1(C)CCN(CC3CC3)C(C2=O)[C@@H]1C [Example 17, N,N-(((2S,6R,11R)-3-(cyclopropylmethyl)-6,11-dimethyl-1-oxo-1,2,3,4,5,6-hexahydro-2,6-methanobenzo[d]azocin-8-yl)methyl)-2-(2-methoxyethoxy)acetamide] | – | – | 23.3 | –
COCCOCCNCc1ccc2c(c1)[C@]1(C)CCN(CC3CC3)[C@H](C2=O)[C@@H]1C [Example 18, (2S,6R,11R)-3-(cyclopropylmethyl)-8-(((2-(2-methoxyethoxy)ethyl)amino)methyl)-6,11-dimethyl-3,4,5,6-tetrahydro-2,6-methanobenzo[d]azocin-1(2H)-one] | – | – | 31.9 | –
COCCOCCOCCOCCOCCOc1c(O)ccc2c1[C@]1(C)CCN(CC3CC3)[C@H](C2=O)[C@@H]1C [Example 19, (2S,6R,11R)-7-(2,5,8,11,14-pentaoxahexadecan-16-yloxy)-3-(cyclopropylmethyl)-8-hydroxy-6,11-dimethyl-3,4,5,6-tetrahydro-2,6-methanobenzo[d]azocin-1(2H)-one] | – | – | 31.6 | –
C[C@H]1[C@H]2C(=O)c3ccc(Nc4ccc(NCCOCCOCCOCCOCCOC(F)(F)F)cc4)cc3[C@]1(C)CCN2CC1CC1 [Example 20, (2S,6R,11R)-3-(cyclopropylmethyl)-6,11-dimethyl-8-((4-((1,1,1-trifluoro-2,5,8,11,14-pentaoxahexadecan-16-yl)amino)phenyl)amino)-3,4,5,6-tetrahydro-2,6-methanobenzo[d]azocin-1(2H)-One] | – | – | 88.1 | percent distance travelled in comparison to vehicle ([2]; 0.3 mg/kg): 100%; percent distance travelled in comparison to vehicle ([2]; 3 mg/kg): 88%; percent distance travelled in comparison to vehicle ([2]; 30 mg/kg): 0.03%; AAW % Efficacy ([1]; oral, 0.3 mg/kg): 39.1%; AAW % Efficacy ([1]; oral, 3 mg/kg): 79.5%; AAW % Efficacy ([1]; oral, 30 mg/kg): 100.0%
C[C@H]1[C@H]2C(=O)c3cc4sc(N)nc4cc3[C@]1(C)CCN2CC1CC1 [Step 1 of 13, (6S,10R,12R)-2-amino-7-(cyclopropylmethyl)-10,12-dimethyl-7,8,9,10-tetrahydro-6,10-methanothiazolo[4′,5′:4,5]benzo[1,2-d]azocin-5(6H)-One] | – | – | 100 | –

Source: patent publication US10081602B2, “Opioid agonists and uses thereof” (Nektar Therapeutics, priority 2013, dated 2018)
